In PubChem BioAssay (NCI):
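Dose response: 5 concentrations. Exposure: 48 h. Format: 96-well plates. Endpoint: linear interpolation; highest concentration if not reached. GI50 marks 50% less growth. TGI is the concentration that stops growth completely.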

How the values were obtained:
Experiment in all cases: DTP human tumour cell line panel, 48 h
MALME-3M melanoma = tested on: MALME-3M melanoma
SK-MEL-28 melanoma = tested on: SK-MEL-28 melanoma
SK-OV-3 ovarian = tested on: SK-OV-3 ovarian
HCC-2998 colon = tested on: HCC-2998 colon
A549 NSCLC = tested on: A549 NSCLC
MDA-MB-231 breast = tested on: MDA-MB-231 breast
M14 melanoma = tested on: M14 melanoma
HOP-92 NSCLC = tested on: HOP-92 NSCLC
A498 renal = tested on: A498 renal
MCF7 breast = tested on: MCF7 breast

Compound	GI50 (MALME-3M melanoma)	TGI (MALME-3M melanoma)	GI50 (SK-MEL-28 melanoma)	TGI (SK-MEL-28 melanoma)	GI50 (SK-OV-3 ovarian)	TGI (SK-OV-3 ovarian)	GI50 (HCC-2998 colon)	TGI (HCC-2998 colon)	GI50 (A549 NSCLC)	TGI (A549 NSCLC)	GI50 (MDA-MB-231 breast)	TGI (MDA-MB-231 breast)	GI50 (M14 melanoma)	TGI (M14 melanoma)	GI50 (HOP-92 NSCLC)	TGI (HOP-92 NSCLC)	GI50 (A498 renal)	TGI (A498 renal)	GI50 (MCF7 breast)	TGI (MCF7 breast)
COC(CCP(=O)(c1ccccc1)c1ccccc1)(C(=O)c1ccccc1)c1ccccc1 (stereo not given)	2.78 µM	15.4 µM	6.95 µM	19.9 µM	8.05 µM	21.8 µM	4.11 µM	17.9 µM	3.77 µM	16.5 µM	2.69 µM	17 µM	3.5 µM	15.3 µM	1.42 µM	16.6 µM	3.4 µM	16.8 µM	2.39 µM	11.3 µM
CN1CCN(c2ccc3c4c(cccc24)C(=O)N(CCN2CCN(CCCN4CCN(CCN5C(=O)c6cccc7c(N8CCN(C)CC8)ccc(c67)C5=O)CC4)CC2)C3=O)CC1	8.36 µM	19.8 µM	9.37 µM	17.1 µM	9.49 µM	18.3 µM	0.738 µM	4.4 µM	7.37 µM	15 µM	6.33 µM	13 µM	7.54 µM	14.2 µM	2.39 µM	10.9 µM	9.79 µM	17.4 µM	5.06 µM	18.5 µM
COC(=O)CCC(=O)c1c(C)[nH]c(/C=C2\N=C(c3ccc[nH]3)C=C2OC)c1C	1.49 µM	3.47 µM	1.27 µM	3.18 µM	6.16 µM	13.8 µM	1.41 µM	5.84 µM	3.08 µM	10.8 µM	0.385 µM	2.64 µM	0.431 µM	1.91 µM	0.486 µM	1.55 µM	7.86 µM	20.7 µM	0.567 µM	2.03 µM
COc1cccc(/C=N\Nc2ccc([N+](=O)[O-])cn2)c1O	4.11 µM	36 µM	19.6 µM	> 100 µM	2.94 µM	20.4 µM	8.01 µM	> 100 µM	4.26 µM	46.3 µM	3.95 µM	96.2 µM	3.34 µM	25.9 µM	2.8 µM	9.44 µM	2.42 µM	15.4 µM	3.18 µM	71.1 µM
O=S1(=O)CCN(Cc2ccccn2)CC1		> 100 µM		> 100 µM		> 100 µM		> 100 µM		> 100 µM		> 100 µM		> 100 µM		> 100 µM		> 100 µM		> 100 µM
CCOC(=O)CC1(O)C=CC(=O)C=C1	0.914 µg/mL	2.89 µg/mL	1.04 µg/mL	2.89 µg/mL	1.71 µg/mL	5.53 µg/mL	2.56 µg/mL	4.68 µg/mL	4.95 µg/mL	16.4 µg/mL	0.443 µg/mL	1.31 µg/mL	1.67 µg/mL	4.35 µg/mL	3.22 µg/mL	5.44 µg/mL	3.09 µg/mL	5.26 µg/mL	0.824 µg/mL	2.59 µg/mL
CCN(CC)CCOc1ccc(/C=C2\CC3C4CCC5=CC(=O)CC[C@]5(C)C4CC[C@]3(C)C2=O)cc1OC (stereo not given in full)	1.5 µM	2.95 µM	2.29 µM	5.67 µM	2.66 µM	8.46 µM	2.18 µM	5.18 µM	4.54 µM	58.3 µM	2.55 µM	6.17 µM	2.08 µM	3.96 µM	3.14 µM	7.51 µM	1.99 µM	8.48 µM	3.02 µM	13.7 µM
O=C(Nc1ccc(Br)cc1)Nc1n[nH]c2ccccc12	> 19.7 µM	> 100 µM	> 100 µM	> 100 µM	> 33.7 µM	> 100 µM	> 100 µM	> 100 µM	> 62.7 µM	> 100 µM	> 50.3 µM	> 100 µM	> 100 µM	> 100 µM	> 86.3 µM	> 100 µM	> 100 µM	> 100 µM	42.1 µM	> 100 µM
CS(=O)(=O)CCNCc1ccc(-c2ccc3ncnc(Nc4ccc(OCc5cccc(C(F)(F)F)c5)cc4)c3c2)o1	5.28 µM	10.5 µM	4.29 µM	8.23 µM	9.25 µM	> 25 µM	4.46 µM	8.26 µM	6.49 µM	> 25 µM	6.34 µM	14.1 µM	6.11 µM	13.9 µM	2.6 µM	7.81 µM	4.38 µM	13.1 µM	6.38 µM	> 15 µM
CC(=O)OC1COC(S[As](C)C)C(OC(C)=O)C1OC(C)=O (stereo not given)	0.0159 µM	0.287 µM	0.666 µM	8.89 µM	1.81 µM	17.3 µM	0.333 µM	0.922 µM	3.51 µM	> 32.4 µM	0.512 µM	2.86 µM	< 0.0419 µM	1.1 µM	0.0332 µM	0.28 µM	0.285 µM	1.56 µM	0.165 µM	5.2 µM
